Assay results reported in patent US11839613B2, “Pyrimidine derivatives as PGE2 receptor modulators” (IDORSIA PHARMACEUTICALS LTD, priority 2017, dated 2023).

Columns and labels:
[1] = biological target: PTGER2 (EP2) (Homo sapiens (Human), UniProt P43116); experiment: hEP2 b-arrestin assay (PathHunter HEK 293 PTGER2 b-arrestin cells); format: cell-based; conditions: antagonistic activity, beta-arrestin assay; read-out: hEP2 b-arr IC50
Procedure: Plate is pre-incubated 15 minutes at 37° C. Then five microliters of PGE2 (final conc. 5 μM) are transferred into the assay plate. Plate is incubated 120 minutes at 37° C.
(each concentration is measured in duplicate)

[2] = biological target: EP2 (Homo sapiens (Human), UniProt P43116); experiment: hEP2 cAMP assay (SF295 glioblastoma cells, HTRF cAMP); format: cell-based; conditions: antagonistic activity
EP2, sequence (P43116 whole entry): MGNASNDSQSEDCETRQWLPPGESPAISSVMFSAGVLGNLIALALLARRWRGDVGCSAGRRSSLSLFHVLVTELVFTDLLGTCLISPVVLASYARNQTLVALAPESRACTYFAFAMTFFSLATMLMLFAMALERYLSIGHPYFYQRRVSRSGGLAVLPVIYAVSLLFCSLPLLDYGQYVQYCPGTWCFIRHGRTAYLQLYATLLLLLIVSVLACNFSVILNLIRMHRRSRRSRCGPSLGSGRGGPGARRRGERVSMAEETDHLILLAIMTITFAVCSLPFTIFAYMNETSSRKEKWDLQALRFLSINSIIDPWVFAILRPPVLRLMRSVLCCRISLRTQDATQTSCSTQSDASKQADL
Summary of the method: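 PGE2-driven cAMP accumulation was measured by HTRF in SF295 cells, which express endogenous EP2 only. Cells in assay buffer with 2 mM IBMX were pre-incubated 45 min at RT, then incubated 30 min at RT. Detection used competition between cellular cAMP and d2-cAMP for a cryptate anti-cAMP antibody.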

[3] = biological target: EP4 (Homo sapiens (Human), UniProt P35408); experiment: hEP4 cAMP assay (BT549 breast cancer cells, HTRF cAMP); format: cell-based; conditions: antagonistic activity, PGE2 6 nM
EP4, sequence (P35408 whole entry): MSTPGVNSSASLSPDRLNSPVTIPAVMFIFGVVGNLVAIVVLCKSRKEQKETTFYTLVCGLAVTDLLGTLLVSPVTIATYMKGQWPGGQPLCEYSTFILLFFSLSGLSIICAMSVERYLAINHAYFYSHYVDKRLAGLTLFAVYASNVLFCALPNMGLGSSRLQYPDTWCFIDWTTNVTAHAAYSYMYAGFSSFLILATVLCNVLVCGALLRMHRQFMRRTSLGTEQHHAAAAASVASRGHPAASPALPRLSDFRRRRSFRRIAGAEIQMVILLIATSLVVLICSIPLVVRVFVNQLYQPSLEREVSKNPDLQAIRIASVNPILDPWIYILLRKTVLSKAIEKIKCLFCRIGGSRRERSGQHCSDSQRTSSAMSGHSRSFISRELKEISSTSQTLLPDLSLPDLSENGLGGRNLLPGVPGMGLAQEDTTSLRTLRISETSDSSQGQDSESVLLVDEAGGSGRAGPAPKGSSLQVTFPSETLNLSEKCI
Summary of the method: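 BT549 breast cancer cells (endogenous EP4) in HBSS/20 mM HEPES/0.2% BSA/2 mM IBMX preincubated 45 min at RT with compound, then stimulated 30 min at RT with 6 nM PGE2 (final). cAMP read by competitive HTRF immunoassay, signal inversely proportional to cAMP.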

[4] = biological target: PTGER4 (EP4) (Homo sapiens (Human), UniProt P35408)
PTGER4 (EP4), sequence (P35408 whole entry): as above

PTGER2 (EP2), sequence (P43116 whole entry): as the sequence (P43116 whole entry) above

SMILES | IC50 [1] [nM] | IC50 [2] [nM] | IC50 [3] [nM] | IC50 [4] [nM] | IC50 ([3]; BT549 cells) [nM]
CSc1cc(-c2cc(NCCc3ccc4scnc4c3)ncn2)ccc1C(=O)O [Ex 237] | 388 | 160 | 335 | 908 | 
CSc1cc(-c2cc(NCCc3ccc4cccc(F)c4c3)ncn2)ccc1C(=O)O [Ex 243] | 493 | 2100 | 355 | 147 | 
CCOc1cc(-c2cc(NCCc3ccc4scc(C#N)c4c3)ncn2)ccc1C(=O)O [Ex 253] | 521 | 158 | 373 | 671 | 
COc1c(CCNc2cc(-c3cc(F)c(C(=O)O)c(OC4CCC4)c3)ncn2)c(F)c(F)c2cc(C)oc12 [Ex 262] | 1300 | 855 | 424 | 186 | 
Cc1c(CCNc2cc(-c3ccc(C(=O)O)c(OC4CCC4)c3)ncn2)ccc2sccc12 [Ex 268] | 25 | 47 | 342 | 688 | 
CCOc1cc(-c2cc(NCCc3ccc4cccc(F)c4c3)ncn2)ccc1C(=O)O [Ex 269] | 1640 | 6510 | 434 | 588 | 
CSc1cc(-c2cc(NCCc3c(F)cc4ccccc4c3F)ncn2)ccc1CC(=O)O [Ex 270] | 1520 | 5660 | 435 | 404 | 
N#Cc1csc2ccc(CCNc3cc(-c4ccc(C(=O)O)c(OC5CCC5)c4)ncn3)cc12 [Ex 273] | 289 | 140 | 455 | 221 | 
CCOc1cc(-c2cc(NCCc3ccc4sccc4c3C)ncn2)ccc1CC(=O)O [Ex 289] | 144 | 358 | 525 | 964 | 
CCOc1cc(-c2cc(NCCc3ccc4sccc4c3C)ncn2)ccc1C(=O)O [Ex 296] | 34 | 61 | 583 | 1600 | 
CSc1cc(-c2cc(NCCc3cc4ccsc4cc3C)ncn2)ccc1CC(=O)O [Ex 305] | 57 | 232 | 653 | 1350 | 
CCOc1cc(-c2cc(NCCc3ccc4cccc(F)c4c3)ncn2)ccc1CC(=O)O [Ex 314] | 3460 | 9230 | 701 | 378 | 
CSc1cc(-c2cc(NCCc3ccc4sccc4c3C)ncn2)ccc1CC(=O)O [Ex 326] | 126 | 160 | 910 | 1070 | 
CCOc1cc(-c2cc(NCCc3c(F)cc4ccccc4c3F)ncn2)sc1C(=O)O [Ex 335] | 100 | 268 | 3 | 12 | 
COc1cc2c(cc1CCNc1cc(-c3ccc(C(=O)O)c(CC(C)C)c3)ncn1)OCCO2 [Example 416] | 245 | 123 |  | 82 | 83
